We go through 23 compounds from publication PMC11085682, “Identification of Novel Peptides in Distillers’ Grains as Antioxidants, α-Glucosidase Inhibitors, and Insulin Sensitizers: In Silico and In Vitro Evaluation” (Nutrients, 2024).

As a reminder, the IC50 is the point on the concentration scale where inhibition reaches its midpoint.

Data set [1] concerns the target α-glucosidase (Saccharomyces cerevisiae, UniProt P53341). Briefly: α-glucosidase inhibitory effect (pNPG). It counts as biochemical. Conditions: synthetic peptides; PBS pH 6.8, 37 °C, 15 min pre-incubation, 30 min with pNPG, absorbance 405 nm; median (25%, 75% quartiles), at least three experiments; read-out: IC50, α-glucosidase inhibition. How it is done:
Distillers’ grains were generously supplied by the Suzhou Bridge Wine & Spirits Co. (Suzhou, China). Peptides YPLPR, AFEPLR, and NDPF (purity ≥ 98%) were composed by All Peptide Biotechnology Co., Ltd. (Hangzhou, China). Dulbecco’s Modified Eagle Medium (DMEM) medium, embracing 10.0% fetal bovine serum (FBS) and 1.0 mol/L phosphate buffer (PBS) was bought from Gibco (Life Technologies, Inc., Carlsbad, CA, USA). Alkaline protease (2.4 U/g), penicillin-streptomycin (100.0 U/mL penicillin-100.0 […] streptomycin), 3-(4,5-dimethylthiazol-2)-2,5-diphenyltetrazolium bromide (MTT) powder, 2′,7′-dichlorofluorescence yellow diacetate (DCFH-DA), and trypsin solution were purchased from Solarbio (Beijing Solarbio Science and Technology Co., Ltd., Beijing, China). The HepG2 cell line was acquired from the Kunming Institute of Animal Science, Chinese Academy of Sciences (Kunming, China). Rosiglitazone, insulin, ABTS, DPPH, α-glucosidase derived from Saccharomyces cerevisiae (type I, protein content of at least 30.0 units per milligram), and p-nitrobenzene α-D-glucopyranoside (pNPG, with a minimum purity of 99.0%) were purchased from Sigma-Aldrich (located in Shanghai, China). The glucose kit was purchased from Nanjing Jiancheng Co. (Nanjinng, China). […]
The inhibitory effect on α-glucosidase activity of the protein hydrolysates from distillers’ grains or three selected peptides was assessed following the methodology outlined by Zhang et al. (2018) with slight modifications, and the concrete method is shown in the Supplementary Materials. […]
The inhibitory effect on α-glucosidase activity of the protein hydrolysates from distillersʹ grains or three selected peptides was assessed following the methodology outlined by Zhang et al. (2018) with slight modifications. […]
The absorbance of the resulting reaction mixture was measured at a wavelength […]
of 405 nm using an enzyme-labeled instrument. […] In this formula, ʺAʺ represents the absorbance value. […]
The antioxidant properties of vinasse hydrolysates or three screening peptides were evaluated by DPPH and ABTS free radical scavenging […]

Data set [2] relates to HepG2 cells. Briefly: MTT cytotoxicity of samples and insulin in HepG2 cells. The source says: (§1) The MTT method was adopted to assess the impact of samples and insulin on cell viability, helping determine the optimal concentrations of insulin and the samples. The experimental protocol for improving insulin resistance followed previous methods. Details are provided in the Supplementary Materials. In this experiment, various groups were established, incorporating the blank control group (K), model group (M), peptide sample groups, and the positive control group (treated with rosiglitazone).
(§2) […] of the main pathogenic mechanisms of type 2 diabetes mellitus, and the liver is an important site for insulin to function. […] As the cellular insulin resistance condition arises, the utilization of glucose by the cells decreases, and the consumption of glucose decreases. Therefore, insulin resistance is usually expressed by the consumption of glucose in studies. Using the MTT method, this study explored the effect of different concentrations of insulin on cellular glucose consumption after 24 h of action with HepG2 cells.

Data set [3] concerns HepG2 cells. Nature of the data set: H2O2 effect on cell viability (cell damage model). It counts as cell-based, human. As to conditions: H2O2 1.2 mmol/L; median (25%, 75% quartiles), n = 4. The text has this:
Excessive ROS may attack normal cells or biological macromolecules and undergo oxidative stress, causing severe damage to cellular structures, which causes many diabetic complications and chronic diseases. Accordingly, in this study, the scavenging activities of ABTS and DPPH radicals of bioactive peptides were not only investigated by in vitro experiments, but their antioxidant activity was also further investigated at the cellular level. The cell damage rate of the H2O2-induced cell damage model was generally around 50%. […] When the concentration of H2O2 was 1.2 mmol/L, the cell viability rate was 56.38 (50.33, 68.00) %, so the concentration of H2O2 of 1.2 mmol/L established the cell damage model in this study. […] Consistent with 3.6, YPLPR, AFEPLR, and NDPF were used at 1.0 mmol/L for subsequent experiments.

In data set [4] the test system is HepG2 cells. Nature of the data set: Glucose consumption of insulin-resistant HepG2 cells. As to conditions: 20.0 µmol/L positive control, 24 h, after 25.0 µmol/L insulin 24 h; median (25%, 75% quartiles), n = 6; model group M 6.08 (5.80, 6.81) mmol/L. Type of data set: cell-based, human.
From the text: as §1, §2

The test system of data set [5] is α-glucosidase. As to conditions: cited from earlier work; for α-glucosidase activity inhibition: peptides from Spanish dry-cured ham. The source says: Since these peptides have small molecular weights, they are more likely to be absorbed intact by the gastrointestinal tract after oral ingestion, thereby exerting systemic or local effects. Consequently, the study of bioactive peptides has progressively emerged as a prominent research area in recent years. Numerous studies have dem ... || α-glucosidase is a membrane-associated enzyme. Inhibition of α-glucosidase activity can reduce carbohydrate hydrolysis, thus reducing sugar absorption and effectively controlling diabetes.. […] In the study on rice wine peptides, the α-glucosidase inhi ... || Due to the fact that α-glucosidase is a more important and directly regulated target in the treatment of diabetes, the potential inhibitory activity of α-glucosidase was used as the main condition of inquiry for further analysis. […] Therefore, this peptide was selected as a positive control to facilitate the analysis of the current study, and its affinity grading after molecular docking with α-glucosidase was −9.1 kcal/mol. Four peptides, YPLPR, AFEPLR, NDPF, and WN ... || (+ 1 further places)

Details of data set [6]: method as in doi:10.1016/j.jff.2016.08.021. As to conditions: at different concentrations (5–150 mg/mL); cited from earlier work.
The conditions of data set [7]: previously screened from rice wine peptides; no reference number printed in the sentence; read-out: IC50, ABTS radical scavenging capacity; cited from earlier work.
The conditions of data set [8]: previously screened from rice wine peptides; no reference number printed in the sentence; read-out: IC50, DPPH radical scavenging capacity; cited from earlier work. A general note: The DPPH test is a chemical assay of radical scavenging.
Data set [9] has as its system HepG2 cells. As to conditions: cited from earlier work; for Glucose consumption in HepG2 cells compared to the model group: walnut-derived peptides; for Insulin resistance in HepG2 cells exposed to high glucose: from goat milk casein hydrolysate. The source says:
In this study, the effect of YPLPR, AFEPLR, and NDPF on the glucose consumption of HepG2 cells in an insulin resistance state was investigated. […] The glucose consumption of peptides YPLPR, AFEPLR, and NDPF were 9.56 (9.37, 9.83), 10.56 ...

For data set [10], the system named is HepG2 cells. Briefly: Effect of insulin concentration on glucose consumption of HepG2 cells. Conditions: insulin 25.0 µmol/L, 24 h. It counts as cell-based, human. The text has this: Details are provided in the Supplementary Materials.
The mark [11] stands for this setting: at 1.0 mmol/mL (so in the source).
Setting [12] is: peptides from malt, read-out: IC50, α-glucosidase inhibitory activity.
[13] abbreviates: peptides from rice wine, read-out: IC50, α-glucosidase depressant activity.

Read-outs that look alike come from different tables or passages of the source. Where a SMILES comes first, the peptide text is derived from it. Where no end group is shown, it is not given here.

Chain of α-glucosidase (Saccharomyces cerevisiae, UniProt P53341) (P53341 whole entry): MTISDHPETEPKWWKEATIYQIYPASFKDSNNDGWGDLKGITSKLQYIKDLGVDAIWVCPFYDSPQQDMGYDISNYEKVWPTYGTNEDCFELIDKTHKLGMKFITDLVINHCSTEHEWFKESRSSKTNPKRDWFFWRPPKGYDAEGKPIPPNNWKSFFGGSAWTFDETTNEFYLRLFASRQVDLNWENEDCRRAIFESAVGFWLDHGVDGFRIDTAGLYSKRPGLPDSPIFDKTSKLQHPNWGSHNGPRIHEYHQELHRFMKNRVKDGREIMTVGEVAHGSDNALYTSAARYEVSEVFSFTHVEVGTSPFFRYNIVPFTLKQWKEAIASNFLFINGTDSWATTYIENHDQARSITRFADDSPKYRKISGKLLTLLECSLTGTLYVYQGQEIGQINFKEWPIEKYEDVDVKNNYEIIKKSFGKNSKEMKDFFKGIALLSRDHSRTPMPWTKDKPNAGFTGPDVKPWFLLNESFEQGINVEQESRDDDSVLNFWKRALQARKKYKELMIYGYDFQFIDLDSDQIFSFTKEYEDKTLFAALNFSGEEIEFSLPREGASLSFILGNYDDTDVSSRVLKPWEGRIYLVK

For the compound `NC(=O)C[C@H](N)C(=O)N[C@@H](CC(=O)O)C(=O)N1CCC[C@H]1C(=O)N[C@@H](Cc1ccccc1)C(=O)O` [NDPF] (H-NDPF-OH), the IC50 in data set [1] worked out at 6.24 mM. Also, the “Cytotoxicity (MTT)” value in data set [2] (setting [11]) is “no cytotoxicity”.
In the case of `OO` [Peptide H2O2], the Cell viability rate in [3] was 56.38 (50.33, 68.00) %.
Consider `CN(CCOc1ccc(CC2SC(=O)NC2=O)cc1)c1ccccn1` (centres unmarked) [rosiglitazone], for which the Glucose consumption in data set [4] was 9.09 (8.29, 9.23) mmol/L.
Regarding “AEEEYPDL [peptide from Spanish dry-cured ham]”, the α-glucosidase activity inhibition result in data set [5] was “effectively inhibited α-glucosidase activity”.
With AFEPLR [AFEPLR], the IC50 in data set [1] amounted to 8.69 mM. In addition, the “Cytotoxicity (MTT)” value in data set [2] (setting [11]) is reported as “no cytotoxicity”.
Take AGGFR [peptide from malt]: the half-inhibitory concentration (IC50) in data set [5] (setting [12]) was 8.66 ± 0.33 mM.
For the compound “AVPYPQ [peptide identified in the research of Pepe et al. (2016)]”, the antioxidant activity entry in data set [6] is recorded as “showed antioxidant activity”.
As to “EAMAPK [peptide identified in the research of Pepe et al. (2016)]”, in data set [6], the antioxidant activity entry is given as “showed antioxidant activity”.
Consider “FTYPR [peptide previously screened from rice wine peptides by molecular simulation]”, for which the IC50 in data set [5] (setting [13]) was 3.57 mM; in [7], 2.64 mM; in data set [8] it was 6.09 mM.
For the compound LDLQR [peptide from malt], the IC50 in data set [5] (setting [12]) is 8.59 ± 0.25 mM.
As to LDNFR [peptide from malt], in [5] (setting [12]), the IC50 is 9.21 ± 0.22 mM.
In the case of “LGVGG [peptide from Spanish dry-cured ham]”, in data set [5], the α-glucosidase activity inhibition result is recorded as “effectively inhibited α-glucosidase activity”.
As to LRYL [walnut-derived peptide], the “Glucose consumption in HepG2 cells compared to the model group” value in data set [9] is “increased glucose consumption”.
In the case of LVRL [walnut-derived peptide], in data set [9], the “Glucose consumption in HepG2 cells compared to the model group” value is listed as “increased glucose consumption”.
Consider “NPWDQVKR [peptide extracted from goat milk casein hydrolysate]”, for which the “Insulin resistance in HepG2 cells exposed to high glucose” value (shortened to “Insulin resistance”) in data set [9] is “improvement in insulin resistance”.
As for “QEPVLGPVRGPFP [peptide extracted from goat milk casein hydrolysate]”, the “Insulin resistance” value in data set [9] is given as “improvement in insulin resistance”.
As for “QFTPR [peptide from previous studies on rice wine]”, in data set [5] (setting [13]), the IC50 is 9.18 mM.
As to “SDIPNPIGSE [peptide extracted from goat milk casein hydrolysate]”, the “Insulin resistance” value in [9] was “improvement in insulin resistance”.
Consider “SSLFR [peptide from previous studies on rice wine]”, for which the IC50 in data set [5] (setting [13]) was 7.73 mM.
On to VLLALVLLR [walnut-derived peptide], for which, in data set [9], the “Glucose consumption in HepG2 cells compared to the model group” value is recorded as “increased glucose consumption”.
Turning to “WLRL [WLRL peptide from soybean protein, positive control]”, in data set [5] (peptide from soybean protein), the “inhibitory effect toward α-glucosidase” value is “good inhibitory effect toward α-glucosidase”.
Consider YPLPR [YPLPR], for which, in data set [1], the half-maximal inhibitory concentration (IC50) was determined as 5.31 mM. Also, the “Cytotoxicity (MTT)” value in data set [2] (setting [11]) is “no cytotoxicity”.
For the compound “insulin: used to establish the insulin resistance model”, in [2] (insulin 25.0 µmol/L), the “Cytotoxicity (MTT)” value is “not cytotoxic”. Further, in [10], the “Cellular glucose consumption compared with the group without insulin” value is “significantly reduced”.
